Article PMC6010002, “Synthesis, pharmacology and molecular docking on multifunctional tacrine-ferulic acid hybrids as cholinesterase inhibitors against Alzheimer’s disease” (Journal of Enzyme Inhibition and Medicinal Chemistry, 2018)
Read-outs that look alike come from different tables or passages of the source.

Tests used:
[1] = biological target: T1, AChE (EC 3.1.1.7) from electric eel (Electrophorus electricus, UniProt O42275); assay: biochemical; conditions: for SI (selectivity index, AChE IC50/BuChE IC50): eeAChE IC50 / eqBuChE IC50; for IC50: eeAChE, mean ± SEM of triplicate independent experiments
T1 construct: AChE (EC 3.1.1.7, Type VI-S, from electric eel, C3389); purchased Sigma-Aldrich C3389; host or cells: electric eel (natural source)
T1 sequence (O42275 24-633): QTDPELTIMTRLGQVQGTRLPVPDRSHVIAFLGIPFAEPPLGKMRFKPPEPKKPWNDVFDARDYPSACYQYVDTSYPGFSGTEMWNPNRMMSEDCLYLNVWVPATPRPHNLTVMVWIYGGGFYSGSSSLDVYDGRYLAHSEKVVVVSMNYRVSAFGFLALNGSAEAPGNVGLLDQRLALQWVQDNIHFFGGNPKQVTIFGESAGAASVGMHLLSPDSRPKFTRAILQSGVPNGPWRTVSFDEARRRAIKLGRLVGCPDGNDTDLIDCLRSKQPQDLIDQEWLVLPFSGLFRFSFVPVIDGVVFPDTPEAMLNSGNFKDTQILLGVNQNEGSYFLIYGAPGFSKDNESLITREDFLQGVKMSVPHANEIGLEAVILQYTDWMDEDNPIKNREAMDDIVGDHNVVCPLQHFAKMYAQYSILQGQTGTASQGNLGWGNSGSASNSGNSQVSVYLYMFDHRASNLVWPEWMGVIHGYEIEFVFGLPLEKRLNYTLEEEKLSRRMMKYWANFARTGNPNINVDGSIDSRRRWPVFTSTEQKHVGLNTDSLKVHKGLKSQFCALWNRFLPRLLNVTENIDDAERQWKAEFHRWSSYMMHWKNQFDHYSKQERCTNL
Experimental: (§1) AChE (EC 3.1.1.7, Type VI-S, from electric eel, C3389) and BuChE (EC 3.1.1.8, from equine serum, C0663), 5,5’-dithiobis (2-nitrobenzoic acid) (DTNB, D218200), acetylthiocholine iodide (ATC, A5751) and butyrylthiocholine iodide (BTC, B3253) used as substrates were obtained from Sigma-Aldrich (St. Louis, MO).
(§2) The inhibitory capacity of the synthesised compounds on AChE and BuChE biological activity in this paper were evaluated according to our previously reported method. Briefly, AChE/BuChE stock solution was diluted with 0.2 M phosphate buffer pH 8.0 to give 2.5 units/mL (for electrophorus electricus (eeAChE) and equine serum (eqBuChE)). ATC/BTC iodide solution (0.075 M) was dissolved in deionized water. […] The assay solution was prepared as follows: potassium dihydrogen phosphate (1.36 g, 10 mmol) was dissolved in 100 ml of water. The pH of the solution was then adjusted to 8.0 ± 0.1 with KOH. Stock solutions of the test samples were dissolved in ethanol to give a final concentration of 10 − 4^ M when diluted to the final volume of 3.32 ml. For each compound, a dilution series of five different concentrations 10 − 5–10 − 9^9 M were prepared.
(§3) For measurement, a cuvette containing 3 mL of phosphate buffer, 100 μL of eeAChE or eqBuChE, 100 μL of DTNB, and 100 μL of the test compound solution was added in sequence. The reaction was initiated by adding 20 μL of ATC or BTC and the solution was mixed immediately. […] For the reference value, 100 μL of water was replaced for the test compound solution. For the blank control, additional 100 μL of water was also replaced for the enzyme solution. The measurement of each concentration was assayed in triplicate. GraphPad Prism 5 (GraphPad Software, Inc., La Jolla, CA) was used for data processing. The inhibition curve was fitted by plotting percentage enzyme activity (100% for the reference) versus the logarithm of test compound concentration. The half maximal inhibitory concentration (IC50) values were calculated according to the curve and the data were shown in mean ± SEM.
(§4) Inhibitory activities were presented as IC50 (nM).

[2] = biological target: T2, BuChE (EC 3.1.1.8) from horse serum (Equus caballus, UniProt P81908); assay: biochemical; conditions: eqBuChE, mean ± SEM of triplicate independent experiments
T2 construct: BuChE (EC 3.1.1.8, from equine serum, C0663); purchased Sigma-Aldrich C0663; host or cells: equine serum (natural source)
T2 sequence (P81908 whole entry): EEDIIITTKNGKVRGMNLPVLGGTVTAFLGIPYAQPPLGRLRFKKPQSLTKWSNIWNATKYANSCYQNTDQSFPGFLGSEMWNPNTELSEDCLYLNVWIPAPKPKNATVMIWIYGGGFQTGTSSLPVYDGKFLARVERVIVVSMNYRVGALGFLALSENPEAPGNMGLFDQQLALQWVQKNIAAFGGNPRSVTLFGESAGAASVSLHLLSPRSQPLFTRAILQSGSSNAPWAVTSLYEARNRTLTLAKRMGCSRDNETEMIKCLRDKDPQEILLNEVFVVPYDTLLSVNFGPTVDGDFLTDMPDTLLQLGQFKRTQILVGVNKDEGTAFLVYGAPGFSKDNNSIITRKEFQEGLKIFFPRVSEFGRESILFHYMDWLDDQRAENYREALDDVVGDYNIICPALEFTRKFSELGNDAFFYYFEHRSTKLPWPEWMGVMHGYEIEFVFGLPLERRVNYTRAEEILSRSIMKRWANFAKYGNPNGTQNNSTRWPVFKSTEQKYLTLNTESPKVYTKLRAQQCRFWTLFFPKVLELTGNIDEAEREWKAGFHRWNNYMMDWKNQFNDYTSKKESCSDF
Experimental: as §1, §2, §3, §4

[3] = biological target: T3, Aβ1–42 (Homo sapiens, UniProt P05067); assay: Inhibition of self-induced Aβ1–42 aggregation (Thioflavin T assay); type: biochemical; conditions: ThT fluorescence, 24 h incubation, read-out: Inhibitory rate of compounds (25 μM) on self-induced Aβ1-42 aggregation
T3 construct: aliquots of 2 μL of Aβ1–42 (AS-64129–05 Anaspec Inc.); purchased Anaspec Inc. AS-64129–05
T3 sequence (P05067 672-713): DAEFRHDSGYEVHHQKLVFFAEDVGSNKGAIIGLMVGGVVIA
Experimental: Inhibitory effects of the compounds on self-induced Aβ1–42 aggregation were tested through a Thioflavin T (ThT)-(T3516, Sigma-Aldrich) binding assay.
The calculation of the inhibitory rate of Aβ1–42 self-induced aggregation was performed as the following equation: (1 − IFi/IFc) × 100%. IFi and IFc were the fluorescence intensities measured in the presence and absence of inhibitors, respectively, after subtracting the background fluorescence of the 5 mM ThT solution. Each compound was measured in triplicate.
A thioflavin T-based fluorometric assay was performed.

[4] = system: scopolamine-induced cognition-impaired adult ICR mice; assay: Morris water maze in scopolamine-induced cognition-impaired mice; type: in vivo; conditions: 30 mg/kg oral, scopolamine 1 mg/kg i.p., mean ± SEM n = 6
Experimental: Behavioral studies were performed using the Morris water maze[25] according to our method reported previously. Adult male imprinting control region (ICR) mice (8–10 weeks old, weight 20–25 g) were obtained from the Yangzhou University Medical Center (Yangzhou, China). All animal handling and experimental protocols were approved by the Institutional Animal Care and Use Committee of the China Pharmaceutical University. Scopolamine hydrobromide was purchased from Aladdin Reagents (S107418, Shanghai, China).
A circular pool (120 cm in diameter, 60 cm height) which was fixed with an escape platform (10 cm diameter) and filled to a depth of 40 cm fresh water (kept at 25 °C) composed the water maze and this water maze placed in a lit room was used to evaluate the cognition function and memory capacity of mice according to our previously described method[24] . After five days of learning and memory training, a probe trial was performed on day 6. For the evaluation of cognitive function, each mouse was individually trained on a visible-platform (labeled by a small flag, 5 cm tall) for two days and was followed by a hidden-platform version (placed 1 cm below the surface of the water) of the water maze from day 3 to day 5. All mice were subjected to two training trials daily, each of which lasted for 90 s. The time for each mouse to find the platform (a successful escape) was recorded. […] On the last day (day 6), a probe trial was given to the mice in which the platform was removed from the pool and each mouse was allowed 90 s to search for the platform. The time the animals spent to reach the missing platform location and the number of times they crossed that location were recorded.
Data for the time of escape latency, the swimming trajectory, and the number of visual platform crossings were recorded by Panlab SMART 3.0 (Panlab, S.L.U, Spain) and GraphPad Prism 5 was used to evaluate the level of memory retention.

[5] = system: adult male ICR mice; type: in vivo; conditions: serum, 3 mg/100 g body weight, mean ± SEM n = 6
Experimental: . Heparinised serum was obtained from the retrobulbar plexus 8, 22, and 36 h after the administration and were subjected to hepatotoxicity evaluation. The activity of aspartate aminotransferase (AST) and alanine aminotransferase (ALT), two indicators of liver damage, was determined by a commercial assay kit (EF551 and EF550 for ALT, EH027 and EF548 for AST, Wako, Japan). The data were analysed by Biochemical Analyzer (HITACHI 7020, Japan).
Mice were sacrificed 1 h after the collection of retrobulbar blood and livers were removed for morphological studies by using the immunohistochemical method. Two 3 mm sections of each liver extending from the hilus to the margin of the left lateral lobe were isolated using ultra-thin semiautomatic microtome (Leica RM2245, Germany) and placed in 10% buffered formaldehyde immediately, fixed for two days, and embedded together in one paraffin block by using paraffin embedding station (Leica EG1150H, Germany). Subsequently, 5 μm sections were prepared from these paraffin blocks. They were deparaffinated and stained with hematoxylin and eosin (H&E) for histopathological examinations.

[6] = system: HepG2 cells; conditions: 24 h, MTT, mean ± SEM n = 3
Experimental: To determine the possible drug-induced hepatotoxicity, 10d and 10g were selected for preliminary hepatotoxicity evaluation. Heparinised serum was obtained after the treatment of the compounds at 8, 22, and 36 h, respectively. […] Additionally, immunohistochemical staining was performed on the liver tissues for the histopathological study.
Methods for Cell Viability Assay. The human hepatocellular HepG2 cells were […]
Cells were seeded into 96-well plates at a density of 3
37 °C for the following experiments. For cytotoxicity test, cells were treated with 0.05- […]
Cell viability was measured by 3-(4,5- dimethylthiazol-2-yl)-2,5-diphenyltetrazolium bromide (MTT) analysis. In brief, 15 µL of MTT was added into each well and incubated at 37 °C for 4 h. The […]
viability was calculated and presented by the percentage of vehicle-treated group.

Structure (SMILES) | SI (selectivity index, AChE IC50/BuChE IC50) [1] | IC50 [1] [nM] | IC50 [2] [nM] | other results
COc1cc(/C=C/C(=O)NCCNc2c3c(nc4ccccc24)CCCC3)ccc1OCc1ccccc1 [Compound 10a, (E)-3–(4-(benzyloxy)-3-methoxyphenyl)-N-(2-((1,2,3,4-tetrahydroacridin-9-yl)amino)ethyl)acrylamide] | 0.4 | 92.2 ± 18.3 | 215 ± 39.5 | –
COc1cc(/C=C/C(=O)NCCNc2c3c(nc4ccccc24)CCCC3)ccc1OCc1ccc(F)cc1 [Compound 10b, (E)-3–(4-((4-fluorobenzyl)oxy)-3-methoxyphenyl)-N-(2-((1,2,3,4-tetrahydroacridin-9-yl)amino)ethyl)acrylamide] | 0.7 | 115 ± 31.2 | 163 ± 16.6 | –
COc1cc(/C=C/C(=O)NCCNc2c3c(nc4ccccc24)CCCC3)ccc1OCc1ccc(Cl)cc1 [Compound 10c, (E)-3–(4-((4-chlorobenzyl)oxy)-3-methoxyphenyl)-N-(2-((1,2,3,4-tetrahydroacridin-9-yl)amino)ethyl)acrylamide] | 1.6 | 101 ± 14.6 | 62.5 ± 9.9 | –
COc1cc(/C=C/C(=O)NCCNc2c3c(nc4ccccc24)CCCC3)ccc1OCc1ccccc1C [Compound 10e, (E)-3–(3-methoxy-4-((2-methylbenzyl)oxy)phenyl)-N-(2-((1,2,3,4-tetrahydroacridin-9-yl)amino)ethyl)acrylamide] | 0.7 | 64.5 ± 7.4 | 98.6 ± 19.1 | –
COc1cc(/C=C/C(=O)NCCNc2c3c(nc4ccccc24)CCCC3)ccc1OCc1cccc(C)c1 [Compound 10f, (E)-3–(3-methoxy-4-((3-methylbenzyl)oxy)phenyl)-N-(2-((1,2,3,4-tetrahydroacridin-9-yl)amino)ethyl)acrylamide] | 0.2 | 63.2 ± 13.5 | 257 ± 3.7 | –
COc1cc(/C=C/C(=O)NCCNc2c3c(nc4ccccc24)CCCC3)ccc1OCc1ccc(C)cc1 [Compound 10h, (E)-3–(3-methoxy-4-((4-methylbenzyl)oxy)phenyl)-N-(2-((1,2,3,4-tetrahydroacridin-9-yl)amino)ethyl)acrylamide] | 0.9 | 140 ± 34.4 | 147 ± 22.4 | –
COc1cc(/C=C/C(=O)NCCNc2c3c(nc4ccccc24)CCCC3)ccc1OCc1ccc(C(C)(C)C)cc1 [Compound 10i, (E)-3–(4-((4-(tert-butyl)benzyl)oxy)-3-methoxyphenyl)-N-(2-((1,2,3,4-tetrahydroacridin-9-yl)amino)ethyl)acrylamide] | 1.8 | 284 ± 59.2 | 158 ± 22.8 | –
COc1cc(/C=C/C(=O)NCCNc2c3c(nc4ccccc24)CCCC3)ccc1OCc1ccc(C(F)(F)F)cc1 [Compound 10k, (E)-3–(3-methoxy-4-((4-(trifluoromethyl)benzyl)oxy)phenyl)-N-(2-((1,2,3,4-tetrahydroacridin-9-yl)amino)ethyl)acrylamide] | 2.4 | 129 ± 16.5 | 52.7 ± 6.3 | –
COc1cccc(COc2ccc(/C=C/C(=O)NCCNc3c4c(nc5ccccc35)CCCC4)cc2OC)c1 [Compound 10l, (E)-3–(3-methoxy-4-((3-methoxybenzyl)oxy)phenyl)-N-(2-((1,2,3,4-tetrahydroacridin-9-yl)amino)ethyl)acrylamide] | 0.7 | 143 ± 40.1 | 195 ± 16.5 | –
COc1ccc(COc2ccc(/C=C/C(=O)NCCNc3c4c(nc5ccccc35)CCCC4)cc2OC)cc1 [Compound 10m, (E)-3–(3-methoxy-4-((4-methoxybenzyl)oxy)phenyl)-N-(2-((1,2,3,4-tetrahydroacridin-9-yl)amino)ethyl)acrylamide] | 0.6 | 75.5 ± 12.8 | 134 ± 11.1 | –
Oc1ccc(/C=C/c2cc(O)cc(O)c2)cc1 [Resveratrol, reference compound] | – | – | – | inhibition at 25 µM [3]: 45.7%
Nc1c2c(nc3ccccc13)CCCC2 [Tacrine] | – | – | – | Distance to target [4]: 725.64 ± 165.15 cm; Speed in virtual platform [4]: 15.78 ± 1.03 cm/s; Latency to target ([4]; probe trial): 25.85 ± 5.52 s; ALT ([5]; 8 h after i.g. administration): 31.8 ± 2.0 U/L; AST ([5]; 8 h after i.g. administration): 133.7 ± 9.0 U/L; ALT ([5]; 22 h after i.g. administration): 25.4 ± 2.8 U/L; AST ([5]; 22 h after i.g. administration): 124.3 ± 12.1 U/L; ALT ([5]; 36 h after i.g. administration): 25.1 ± 2.7 U/L; AST ([5]; 36 h after i.g. administration): 112.4 ± 11.4 U/L; Cell viability (% of vehicle) ([6]; HepG2, 25 µM): 106.2 ± 2.3 % of vehicle; Cell viability (% of vehicle) ([6]; HepG2, 125 µM): 97.2 ± 2.9 % of vehicle; Cell viability (% of vehicle) ([6]; HepG2, 250 µM): 58.9 ± 0.7 % of vehicle; Cell viability (% of vehicle) ([6]; HepG2, 500 µM): 22.7 ± 1.6 % of vehicle
